BindingDB's records for doi:10.1021/acsmedchemlett.9b00552 (Bristol-Myers Squibb Research & Development, 2020)

Target: T1, TGF-beta receptor type-1 (Homo sapiens, UniProt P36897)
T1 sequence (P36897 whole entry): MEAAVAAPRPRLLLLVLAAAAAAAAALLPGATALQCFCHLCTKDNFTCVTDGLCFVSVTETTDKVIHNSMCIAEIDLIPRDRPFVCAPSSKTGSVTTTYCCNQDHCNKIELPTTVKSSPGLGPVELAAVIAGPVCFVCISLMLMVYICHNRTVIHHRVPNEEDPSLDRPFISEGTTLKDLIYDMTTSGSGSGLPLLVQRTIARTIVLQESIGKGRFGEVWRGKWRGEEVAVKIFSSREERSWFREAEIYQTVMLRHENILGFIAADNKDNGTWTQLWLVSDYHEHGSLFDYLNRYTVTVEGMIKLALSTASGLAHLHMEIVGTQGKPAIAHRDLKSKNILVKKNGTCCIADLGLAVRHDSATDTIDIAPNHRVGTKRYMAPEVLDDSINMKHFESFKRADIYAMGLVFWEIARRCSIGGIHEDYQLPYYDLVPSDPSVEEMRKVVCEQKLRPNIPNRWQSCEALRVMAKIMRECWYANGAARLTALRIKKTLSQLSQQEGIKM
Assay: Inhibition of TGFbetaR1 in TGFbeta-stimulated mink Mv1Lu cells assessed as reduction in SMAD nuclear translocation preincubated for 1 hr followed by TGFbeta-stimulation for 15 mins by array scan based method

| Compound | IC50 [nM] |
| --- | --- |
| Cc1cccc(-c2ncn(CC(F)F)c2-c2ccc3nccn3c2)n1 | 420 |
| N#Cc1cnc2ccc(-c3c(-c4ccc(F)c(Cl)c4)ncn3CCO)nn12 [6-(4-(3-chloro-4-fluorophenyl)-1-(2-hydroxyethyl)-1H-imidazol-5-yl)imidazo[1,2-b]pyridazine-3-carbonitrile] | 350 |
